According to ChEMBL document CHEMBL1158741, “Majusculoic acid, a brominated cyclopropyl fatty acid from a marine cyanobacterial mat assemblage” (2005):
In brackets after ≈: the same amount, converted by molar mass. Activity calls are given as the source filed them. The calls are words filed in the database; no cut-off is given here.

Key:
Candida albicans [1] = assay: Antifungal activity against Candida albicans ATCC 14503; format: functional
Candida albicans [2] = assay: Antifungal activity against fluconazole-resistant Candida albicans UCD FR1; format: functional, organism-based
Nakaseomyces glabratus = assay: Antifungal activity against Candida glabrata; format: functional

| Compound | MIC (Candida albicans [1]) | Activity (Candida albicans [2]) | MIC (Nakaseomyces glabratus) |
| --- | --- | --- | --- |
| CCC/C(Br)=C/C=C/CC[C@H]1C[C@@H]1CCC(=O)O [MAJUSCULOIC ACID] | 8 µM (≈ 2.52 µg/mL) | inactive | 19.3 µM (≈ 6.08 µg/mL) |
| OC(Cn1cncn1)(Cn1cncn1)c1ccc(F)cc1F [FLUCONAZOLE] | 1 µM (≈ 0.306 µg/mL) | – | – |
